Laboratory results as given in patent publication US20210121419A1, “METFORMIN COMPOUNDED COMPOSITION AND METHOD THEREOF” (ZHOUSHAN TRITECH BIOSCIENCES, INC., priority 2018, published 2021).

Test system: enteric microorganism
Experiment: Low dose metformin usage in a large population
Format: in vivo, human
Details: low dose 0.125-0.25 g/day
Source text: One of the new discoveries of the present disclosure is the important health effect of low dose metformin. The normal dosage of metformin in Chinese population is 1-2 g per day, and the dose for the anti-aging clinical trial in the US is 1.7 g per day. It is known that one of the functions of metformin in regulating human health is through regulating enteric microorganism, whereas an unexpected discovery of the present disclosure is that low dose metformin (0.1-0.5 g/day, prefer for 0.125-0.25 g/day) can also promote health through regulating enteric microorganism. The application of low dose metformin can avoid long-term application caused side effects such as hypoglycemia, lactic acidosis, and hepatic and renal toxicity when normal dosage is used.

**Q.** `CN(C)C(=N)N=C(N)N` [metformin, 1,1-Dimethylbiguanide] was tested. Which “time until stool returned to normal” value did it give?
**A.** 4 to 5 days

**Q.** What about the stool effect (2-3 days after usage) of the same compound?
**A.** mild diarrhea
